The structures appear in SMILES notation. Marks after values point to notes of the source that are not given here.

For the first assay, the system named is IL-5 production. As to the kind of experiment: In vitro inhibition of IL-5 production in human blood (phytohemagglutinin-stimulated whole blood, ELISA). In kind it is cell-based. The settings on record: test dose 1×10^−5 M (values marked *), 48 hours. The gist of the method:
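Percent inhibition of IL-5, quantified by ELISA in cell-free supernatants, is given at a single dose of 1×10^−6 M (or 1×10^−5 M). Threefold-diluted human whole blood from healthy men received compound for 60 min at 37° C before 48 h PHA stimulation at 2 μg/mL.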
(In an ELISA, binding on a coated surface is turned into a signal by an enzyme label.)
In the case of `O=c1cnn(-c2ccc(C(Sc3nc4ccccc4[nH]3)c3ccc(Cl)cc3)c(Cl)c2)c(=O)[nH]1` (racemic) [Compound 52], the “% inh. (percentage inhibition of IL-5 production), marked with *” value was 57* %. Still for that read-out and setting: then `Cn1cnnc1SC(c1ccc(Cl)cc1)c1ccc(-n2ncc(=O)[nH]c2=O)cc1Cl` (racemic) [Compound 53], with 53* %. Regarding `Cc1cc(O)nc(SC(c2ccc(Cl)cc2)c2ccc(-n3ncc(=O)[nH]c3=O)cc2Cl)n1` (racemic) [Compound 60], the “% inh. (percentage inhibition of IL-5 production), marked with *” value is reported as 24* %.

The assay is the same for the next values; noted with them: test dose 1×10^−5 M (values marked *), 48 hours, read-out: % inh. (percentage inhibition of IL-5 production), marked with *.
The term inhibition denotes the percentage by which the read-out fell short of the control. `O=c1cnn(-c2ccc(C(c3ccc(Cl)cc3)N3CCC(O)CC3)c(Cl)c2)c(=O)[nH]1` (racemic) [Compound 119, (±)-2-[3-chloro-4-[(4-chlorophenyl)(4-hydroxy-1-piperidinyl)methyl]phenyl]-1,2,4-triazine-3,5(2H,4H)-dione]: the inhibition at 10 µM was determined as 72%.

The same assay, now with this note: test dose 1×10^−6 M, 48 hours.
In the case of `CN(C)CCSC(c1ccc(Cl)cc1)c1ccc(-n2ncc(=O)[nH]c2=O)cc1Cl` (racemic) [Compound 54], the “% inh. (percentage inhibition of IL-5 production)” value was determined as 14%. Regarding `O=c1cnn(-c2ccc(C(Sc3nc[nH]n3)c3ccc(Cl)cc3)c(Cl)c2)c(=O)[nH]1` (racemic) [Compound 55], the “% inh. (percentage inhibition of IL-5 production)” value is on record as 26%. Same read-out and setting: then `Cc1nnc(SC(c2ccc(Cl)cc2)c2ccc(-n3ncc(=O)[nH]c3=O)cc2Cl)s1` (racemic) [Compound 56], with 41%. For `O=c1cnn(-c2ccc(C(Sc3ccc(F)cc3)c3ccc(Cl)cc3)c(Cl)c2)c(=O)[nH]1` (racemic) [Compound 57], the “% inh. (percentage inhibition of IL-5 production)” value stood at 50%. As to `Cn1ccnc1SC(c1ccc(Cl)cc1)c1ccc(-n2ncc(=O)[nH]c2=O)cc1Cl` (racemic) [Compound 58], the “% inh. (percentage inhibition of IL-5 production)” value turned out to be 5%.

As for `Nc1ccc(SC(c2ccc(Cl)cc2)c2ccc(-n3ncc(=O)[nH]c3=O)cc2Cl)cc1` (racemic) [Compound 59], the “% inh. (percentage inhibition of IL-5 production)” value was found to be 76%. With `O.O=c1cnn(-c2ccc(C(Sc3nccc(O)n3)c3ccc(Cl)cc3)c(Cl)c2)c(=O)[nH]1` (racemic) [Compound 61], the “% inh. (percentage inhibition of IL-5 production)” value was determined as 14%. The same measure, in the same setting: in the case of `Cc1ccc2[nH]c(SC(c3ccc(Cl)cc3)c3ccc(-n4ncc(=O)[nH]c4=O)cc3Cl)nc2c1` (racemic) [Compound 62] it was 30%; in that of `O=c1cnn(-c2ccc(C(Sc3nccs3)c3ccc(Cl)cc3)c(Cl)c2)c(=O)[nH]1` (racemic) [Compound 63], 68%; in that of `O=c1cnn(-c2ccc(C(SCc3ccco3)c3ccc(Cl)cc3)c(Cl)c2)c(=O)[nH]1` (racemic) [Compound 64], 64%.

For `O=c1cnn(-c2ccc(C(Sc3ccncc3)c3ccc(Cl)cc3)c(Cl)c2)c(=O)[nH]1` (racemic) [Compound 65], the “% inh. (percentage inhibition of IL-5 production)” value stood at 50%. The same measure, in the same setting: then `Cc1cc(C)nc(SC(c2ccc(Cl)cc2)c2ccc(-n3ncc(=O)[nH]c3=O)cc2Cl)n1` (racemic) [Compound 66], with 64%. The same measure, in the same setting: in the case of `O=c1cnn(-c2ccc(C(SCc3ccc(Cl)cc3)c3ccc(Cl)cc3)c(Cl)c2)c(=O)[nH]1` (racemic) [Compound 67] it was 69%; in that of `Nc1cc(SC(c2ccc(Cl)cc2)c2ccc(-n3ncc(=O)[nH]c3=O)cc2Cl)nc(N)n1` (racemic) [Compound 68], 60%; in that of `Nc1cc(N)nc(SC(c2ccc(Cl)cc2)c2ccc(-n3ncc(=O)[nH]c3=O)cc2Cl)n1` (racemic) [Compound 70], 51%.

For `O=c1cnn(-c2ccc(C(Sc3nc4ccccc4o3)c3ccc(Cl)cc3)c(Cl)c2)c(=O)[nH]1` (racemic) [Compound 71], the “% inh. (percentage inhibition of IL-5 production)” value was 84%. In the case of `O=c1cnn(-c2ccc(C(Sc3cccc[n+]3[O-])c3ccc(Cl)cc3)c(Cl)c2)c(=O)[nH]1` (racemic) [Compound 73], the “% inh. (percentage inhibition of IL-5 production)” value is reported as 21%. `O=c1cnn(-c2ccc(C(Sc3ncnc4[nH]ncc34)c3ccc(Cl)cc3)c(Cl)c2)c(=O)[nH]1` (racemic) [Compound 74]: the “% inh. (percentage inhibition of IL-5 production)” value is recorded as 69%. With `Cc1ccnc(SC(c2ccc(Cl)cc2)c2ccc(-n3ncc(=O)[nH]c3=O)cc2Cl)n1` (racemic) [Compound 75], the “% inh. (percentage inhibition of IL-5 production)” value is 72%.

For the compound `CCOC(=O)CSC(c1ccc(Cl)cc1)c1ccc(-n2ncc(=O)[nH]c2=O)cc1Cl` (racemic) [Compound 76], the “% inh. (percentage inhibition of IL-5 production)” value was 2%.

Turning to `O=c1cnn(-c2ccc(C(Sc3nc4ccccc4s3)c3ccc(Cl)cc3)c(Cl)c2)c(=O)[nH]1` (racemic) [Compound 77], the “% inh. (percentage inhibition of IL-5 production)” value amounted to 65%. Still for that read-out and setting: in the case of `O=c1cnn(-c2ccc(C(SC3=NCCS3)c3ccc(Cl)cc3)c(Cl)c2)c(=O)[nH]1` (racemic) [Compound 78] it was 70%; in that of `COc1ccc(-c2ccnc(SC(c3ccc(Cl)cc3)c3ccc(-n4ncc(=O)[nH]c4=O)cc3Cl)n2)cc1` (racemic) [Compound 79], 74%; in that of `O=c1cnn(-c2ccc(C(Sc3nc4cccnc4s3)c3ccc(Cl)cc3)c(Cl)c2)c(=O)[nH]1` (racemic) [Compound 81], 76%. Still for that read-out and setting: then `COCc1cc(O)nc(SC(c2ccc(Cl)cc2)c2ccc(-n3ncc(=O)[nH]c3=O)cc2Cl)n1` (racemic) [Compound 82], with 19%; and `Cn1ccnc1C(O)(c1ccc(Cl)cc1)c1ccc(-n2ncc(=O)[nH]c2=O)cc1Cl.O` (racemic) [Compound 120, (±)-2-[3-chloro[4-[(4-chlorophenyl)hydroxy(1-methyl-1H-imidazol-2-yl)methyl]phenyl]-1,2,4-triazine-3,5(2H,4H)-dione monohydrate], with 10%; and `O=c1cnn(-c2ccc(C(c3ccc(Cl)cc3)c3nc(-c4ccccc4)no3)c(Cl)c2)c(=O)[nH]1` (racemic) [Compound 125, (±)-2-[(3-chloro-4-[(4-chlorophenyl)(3-phenyl-1,2,4-oxadiazol-5-yl)methyl]phenyl]-1,2,4-triazine-3,5(2H,4H)-dione], with 52%. For `O=c1cnn(-c2cc(Cl)c(C(c3ccc(Cl)cc3)c3nnc(-c4ccccc4)o3)c(Cl)c2)c(=O)[nH]1` (racemic) [Compound 127, (±)-2-[3,5-dichloro-4-[(4-chlorophenyl)(5-phenyl-1,3,4-oxadizol-2-yl)methyl]-phenyl]-1,2,4-triazine-3,5(2H,4H)-dione], the “% inh. (percentage inhibition of IL-5 production)” value is 94%.

Still in this assay, the particulars now being: test dose 1×10^−6 M, 48 hours, read-out: % inh. (percentage inhibition of IL-5 production).
Turning to `O=c1cnn(-c2ccc(C(Sc3ccccn3)c3ccc(Cl)cc3)c(Cl)c2)c(=O)[nH]1` (racemic) [Compound 93, (±)-2-[3-chloro-4-[(4-chlorophenyl)(2-pyridinyl-thio)methyl]phenyl]-1,2,4-triazine-3,5(2H,4H)-dione], the inhibition at 1 µM came to 86%. Same read-out and setting: in the case of `O=c1cnn(-c2ccc(C(Sc3ncc[nH]3)c3ccc(Cl)cc3)c(Cl)c2)c(=O)[nH]1` (racemic) [Compound 94, (±)-2-[3-chloro-4-[(4-chlorophenyl)(1H-imidazol-2-ylthio)methyl]phenyl]-1,2,4-triazine-3,5(2H,4H)-dione] it was 18%; in that of `CCNC(CSC(c1ccc(Cl)cc1)c1ccc(-n2ncc(=O)[nH]c2=O)cc1Cl)C(=O)O` (racemic) [Compound 95, (±)-ethyl α-[[[(4-chlorophenyl)[2-chloro-4-(4,5-dihydro-3,5-dioxo-1,2,4-triazin-2(3H)-yl)phenyl]methyl]thio]methyl]glycine], 17%; in that of `CN1CCN(C(c2ccc(Cl)cc2)c2ccc(-n3ncc(=O)[nH]c3=O)cc2Cl)CC1` (racemic) [Compound 118, (±)-2-[3-chloro-4-[(4-chlorophenyl)(4-methyl-1-piperazinyl)methyl]phenyl]-1,2,4-triazine-3,5(2H,4H)-dione], 34%.

As for `Cn1ccnc1C(c1ccc(Cl)cc1)c1ccc(-n2ncc(=O)[nH]c2=O)cc1Cl` (racemic) [Compound 123, (±)-2-[3-chloro-4-[(4-chlorophenyl)(1-methyl-1H-imidazol-2-yl)methyl]phenyl]-1,2,4-triazine-3,5(2H,4H)-dione], the inhibition at 1 µM stood at 13%. On the same count and under the same terms, in the case of `O=c1cnn(-c2ccc(C(c3ccc(Cl)cc3)c3cccnc3)c(Cl)c2)c(=O)[nH]1` (racemic) [Compound 124, (±)-2-[3-chloro-4-[(4-chlorophenyl)-3-pyridinylmethyl]phenyl]-1,2,4-triazine-3,5(2H,4H)-dione] it was 42%; in that of `Cc1nc(C(c2ccc(Cl)cc2)c2ccc(-n3ncc(=O)[nH]c3=O)cc2Cl)no1` (racemic) [Compound 126, (±)-2-[3-chloro-4-[(4-chlorophenyl)(5-methyl-1,2,4-oxadiazol-3-yl)methyl]phenyl]-1,2,4-triazine-3,5(2H,4H)-dione], 40%; in that of `O=c1cnn(-c2ccc(C(c3ccc(Cl)cc3)c3nc4ccccc4s3)c(Cl)c2)c(=O)[nH]1` (racemic) [Compound 130, (±)-2-[4-[2-benzothiazolyl-(4-chlorophenyl)methyl]-3-chlorophenyl]-1,2,4-triazine-3,5(2H,4H)-dione], 70%. Consider `O=c1cnn(-c2ccc(C(c3ccc(Cl)cc3)c3nc4ccccc4o3)c(Cl)c2)c(=O)[nH]1` (racemic) [Compound 131, (±)-2-[4-[2-benzoxazolyl(4-chlorophenyl)methyl]-3-chlorophenyl]-1,2,4-triazine-3,5(2H,4H)-dione], for which the inhibition at 1 µM came to 76%.
